Experimental data taken from US20250066413A1, “COMPOSITIONS FOR TREATMENT OF INFLAMMATION” (Metro International Biotech, LLC, priority 2022, published 2025).

How the values were obtained:
Type in all cases: cell-based
[1] = system: HEPG2 Cells; experiment: NAD Elevation Assay (NAD Cellular Assay), HEPG2 cells
Description: (§1) Compounds were tested in an NAD Cellular Assay according to the following protocol. Jurkat cells (50,000 per in 100 microliters of RPMI media) were added to wells of a 96 well, conical bottomed plate. The cells were allowed to recover for 3 h in culture. A 16 microliter aliquot of a 100 mM compound stock solution was diluted with 784 microliters of medium and 10% FBS to give 800 microliters of a 2 mM compound treatment solution. The compound treatment solution was added to the cells for a final concentration of 1 mM compound (n=6 wells for each compound.) As a parallel control, nicotinamide mononucleotide (NMN) was added to cells at a final concentration of 2 mM (n=6). The plates were incubated for 24 hours, then spun at 1000 rpm for 10 min. The medium was removed, then the cells were washed with fresh PBS and spun again. The PBS medium was removed, then the cells were washed one more time with PBS and spun. The liquid was removed from each well via pipette, avoiding touching the cell pellet. The cells were lysed with 75 microliters of 0.5% DTAB. 25 microliters of the lysate was added to each of two flat bottomed plates. One plate was used for a BCA protein assay (clear), and the other plate was used for the NAD assay (clear bottom, white walled). The NAD concentration in each well was determined using a commercially available assay according to the kit instructions (e.g. Promega NAD/NADH-Glo™ Assay.) The Pierce BCA protein assay was run according to the kit instructions (e.g. ThermoScientific Catalog number 23225). NAD levels were normalized to total protein and reported as a multiple of the NAD level in untreated cells.
(§2) Assays with other cell types were run similarly, using the appropriate compound and NMN dilutions. Cell counts were adjusted as necessary to provide a signal within the reading range of the protein and NAD assay kits.

[2] = system: NDF Cells; experiment: NAD Elevation Assay (NAD Cellular Assay), NDF cells; details: 0.25 mM compound
Description: as §1, §2

[3] = system: Jurkat cells; experiment: NAD Elevation Assay (NAD Cellular Assay), Jurkat cells; details: 1 mM compound, 24 hours
Description: as §1, with “25 microliters of the lysate was added to each of two flat bottomed plates. One plate was used for a BCA protein assay (clear), and the other plate was used for the NAD assay (clear bottom, white walled).” left out, “NAD levels were normalized to total protein and reported as a multiple of the NAD level in untreated cells.” left out

[4] = system: AML12 Cells; experiment: NAD Elevation Assay (NAD Cellular Assay), AML12 cells; details: at 0.4-2 mM compound
Description: as §1, with “The PBS medium was removed, then the cells were washed one more time with PBS and spun. The liquid was removed from each well via pipette, avoiding touching the cell pellet. The cells were lysed with 75 microliters of 0.5% DTAB. 25 microliters of the lysate was added to each of two flat bottomed plates. One plate was used for a BCA protein assay (clear), and the other plate was used for the NAD assay (clear bottom, white walled).” left out, “NAD levels were normalized to total protein and reported as a multiple of the NAD level in untreated cells.” left out
as §2

SMILES: CCn1c(=O)c2c(ncn2CCOC(=O)c2ccc[n+]([C@@H]3O[C@H](COP(=O)([O-])O)[C@@H](O)[C@H]3O)c2)n(CC)c1=O [Compound 11P, ((2R,3S,4R,5R)-5-(3-((2-(1,3-diethyl-2,6-dioxo-1,2,3,6-tetrahydro-7H-purin-7-yl)ethoxy)carbonyl)pyridin-1-ium-1-yl)-3,4-dihydroxytetrahydrofuran-2-yl)methyl hydrogen phosphate]
- NAD Elevation Assay (NAD level normalized to total protein, multiple of the NAD level in untreated cells) ([1]; 2 mM compound): 1.3x @2

SMILES: CCCn1cnc2c1c(=O)n(CCOC(=O)c1ccc[n+]([C@@H]3O[C@H](COP(=O)([O-])O)[C@@H](O)[C@H]3O)c1)c(=O)n2C [Compound 7P, ((2R,3S,4R,5R)-3,4-dihydroxy-5-(3-((2-(3-methyl-2,6-dioxo-7-propyl-2,3,6,7-tetrahydro-1H-purin-1-yl)ethoxy)carbonyl)pyridin-1-ium-1-yl)tetrahydrofuran-2-yl)methyl hydrogen phosphate]
- NAD Elevation Assay (NAD level normalized to total protein, multiple of the NAD level in untreated cells) [2]: 1.9x @0.25

SMILES: Cn1c(=O)c2c(ncn2CC(=O)OCCCOC(=O)c2ccc[n+]([C@@H]3O[C@H](COP(=O)([O-])O)[C@@H](O)[C@H]3O)c2)n(C)c1=O [Compound 6P, ((2R,3S,4R,5R)-5-(3-((3-(2-(1,3-dimethyl-2,6-dioxo-1,2,3,6-tetrahydro-7H-purin-7-yl)acetoxy)propoxy)carbonyl)pyridin-1-ium-1-yl)-3,4-dihydroxytetrahydrofuran-2-yl)methyl hydrogen phosphate]
- NAD Elevation Assay (NAD level normalized to total protein, multiple of the NAD level in untreated cells) [2]: 2.0x @0.25

SMILES: Cn1cnc2c1c(=O)n(CCOC(=O)c1ccc[n+]([C@@H]3O[C@H](COP(=O)([O-])O)[C@@H](O)[C@H]3O)c1)c(=O)n2C [Compound 4, ((2R,3S,4R,5R)-5-(3-((2-(3,7-dimethyl-2,6-dioxo-2,3,6,7-tetrahydro-1H-purin-1-yl)ethoxy)carbonyl)pyridin-1-ium-1-yl)-3,4-dihydroxytetrahydrofuran-2-yl)methyl hydrogen phosphate]
- NAD Elevation Assay (NAD level normalized to total protein, multiple of the NAD level in untreated cells) ([1]; 0.1 mM compound): 2.1x @0.1

SMILES: Cn1cnc2c1c(=O)n(CCCOC(=O)c1ccc[n+]([C@@H]3O[C@H](COP(=O)([O-])O)[C@@H](O)[C@H]3O)c1)c(=O)n2C [Compound 5P, ((2R,3S,4R,5R)-5-(3-((3-(3,7-dimethyl-2,6-dioxo-2,3,6,7-tetrahydro-1H-purin-1-yl)propoxy)carbonyl)pyridin-1-ium-1-yl)-3,4-dihydroxytetrahydrofuran-2-yl)methyl hydrogen phosphate]
- NAD Elevation Assay (NAD level normalized to total protein, multiple of the NAD level in untreated cells) [2]: 2.2x @0.25

SMILES: Cn1c(=O)c2c(ncn2CCOC(=O)c2ccc[n+]([C@@H]3O[C@H](CO)[C@@H](O)[C@H]3O)c2)n(C)c1=O.O=S(=O)([O-])C(F)(F)F [Compound 2, 1-((2R,3R,4S,5R)-3,4-dihydroxy-5-(hydroxymethyl)tetrahydrofuran-2-yl)-3-((2-(1,3-dimethyl-2,6-dioxo-1,2,3,6-tetrahydro-7H-purin-7-yl)ethoxy)carbonyl)pyridin-1-ium trifluoromethanesulfonate]
- NAD Elevation Assay (NAD level normalized to total protein, multiple of the NAD level in untreated cells) [3]: 2.9x @1

SMILES: Cn1c(=O)c2c(ncn2CCOC(=O)c2ccc[n+]([C@@H]3O[C@H](COP(=O)([O-])O)[C@@H](O)[C@H]3O)c2)n(C)c1=O [Compound 2P, ((2R,3S,4R,5R)-5-(3-((2-(1,3-dimethyl-2,6-dioxo-1,2,3,6-tetrahydro-7H-purin-7-yl)ethoxy)carbonyl)pyridin-1-ium-1-yl)-3,4-dihydroxytetrahydrofuran-2-yl)methyl hydrogen phosphate]
- NAD Elevation Assay (NAD level normalized to total protein, multiple of the NAD level in untreated cells) ([1]; 2 mM compound): 1.6x @2

SMILES: Cn1cnc2c1c(=O)n(CC(=O)OCCCOC(=O)c1ccc[n+]([C@@H]3O[C@H](CO)[C@@H](O)[C@H]3O)c1)c(=O)n2C.O=S(=O)([O-])C(F)(F)F [Compound 1, 1-((2R,3R,4S,5R)-3,4-dihydroxy-5-(hydroxymethyl)tetrahydrofuran-2-yl)-3-((3-(2-(3,7-dimethyl-2,6-dioxo-2,3,6,7-tetrahydro-1H-purin-1-yl)acetoxy)propoxy)carbonyl)pyridin-1-ium trifluoromethanesulfonate]
- NAD Elevation Assay [4]: Active at 0.4-2

SMILES: Cn1cnc2c1c(=O)n(CCOC(=O)c1ccc[n+]([C@@H]3O[C@H](CO)[C@@H](O)[C@H]3O)c1)c(=O)n2C.O=S(=O)([O-])C(F)(F)F [Compound 3, 1-((2R,3R,4S,5R)-3,4-dihydroxy-5-(hydroxymethyl)tetrahydrofuran-2-yl)-3-((2-(3,7-dimethyl-2,6-dioxo-2,3,6,7-tetrahydro-1H-purin-1-yl)ethoxy)carbonyl)pyridin-1-ium trifluoromethanesulfonate]
- NAD Elevation Assay [4]: Active at 0.4-2

SMILES: Cn1cnc2c1c(=O)n(CCNC(=O)c1ccc[n+]([C@@H]3O[C@H](COP(=O)([O-])O)[C@@H](O)[C@H]3O)c1)c(=O)n2C [Compound 9P, ((2R,3S,4R,5R)-5-(3-((2-(3,7-dimethyl-2,6-dioxo-2,3,6,7-tetrahydro-1H-purin-1-yl)ethyl)carbamoyl)pyridin-1-ium-1-yl)-3,4-dihydroxytetrahydrofuran-2-yl)methyl hydrogen phosphate]
- NAD Elevation Assay (NAD level normalized to total protein, multiple of the NAD level in untreated cells) ([1]; 0.25 mM compound): 1.9x @0.25
